According to ChEMBL document CHEMBL1201862, “PubChem BioAssay data set” (2004):
The source made the active and inactive calls.

Legend:
Cytochrome P450 2C9 = Cytochrome P450 2C9 (Homo sapiens, UniProt P11712)
Cytochrome P450 2D6 = Cytochrome P450 2D6 (Homo sapiens, UniProt P10635);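 also: CYP2D6 member of a cytochrome P450 panel assay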
[1] = blockers of CRF-binding protein–CRF-R2 complex – cell-based, uHTS hits, 384-well, dose response (AID 651639); assay type: functional, Homo sapiens; conditions: read-out: IC50_Mean
[2] = biological target: T1, Corticotropin-releasing factor receptor 2/Corticotropin-releasing factor-binding protein (Homo sapiens, UniProt P24387+Q13324); assay: activators of CRF receptor 2 with binding protein – uHTS hits, confirmation (AID 602473); assay type: functional; conditions: read-out: EC50_Mean
T1 sequence (Q13324 whole entry): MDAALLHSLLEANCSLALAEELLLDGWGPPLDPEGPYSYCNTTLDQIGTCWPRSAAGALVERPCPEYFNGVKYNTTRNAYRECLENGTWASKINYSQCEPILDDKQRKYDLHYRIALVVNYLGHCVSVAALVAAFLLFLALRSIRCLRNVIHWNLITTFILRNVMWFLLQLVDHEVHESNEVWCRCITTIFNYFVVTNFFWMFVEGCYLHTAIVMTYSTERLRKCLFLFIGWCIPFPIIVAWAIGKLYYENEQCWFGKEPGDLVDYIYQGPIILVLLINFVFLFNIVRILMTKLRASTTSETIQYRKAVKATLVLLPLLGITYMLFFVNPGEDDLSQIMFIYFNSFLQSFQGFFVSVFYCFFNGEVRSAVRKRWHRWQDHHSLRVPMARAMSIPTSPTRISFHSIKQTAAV
T1 sequence (P24387 whole entry): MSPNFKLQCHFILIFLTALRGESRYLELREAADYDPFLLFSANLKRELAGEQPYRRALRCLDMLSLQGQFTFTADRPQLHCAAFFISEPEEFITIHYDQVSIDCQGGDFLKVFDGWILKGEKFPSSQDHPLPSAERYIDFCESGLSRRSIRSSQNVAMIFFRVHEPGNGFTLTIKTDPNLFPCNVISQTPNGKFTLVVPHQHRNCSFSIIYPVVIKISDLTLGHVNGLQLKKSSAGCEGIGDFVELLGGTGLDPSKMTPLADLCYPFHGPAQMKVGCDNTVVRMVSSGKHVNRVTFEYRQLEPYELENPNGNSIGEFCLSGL

[3] = biological target: T1, Corticotropin-releasing factor receptor 2/Corticotropin-releasing factor-binding protein; assay: Dose Response confirmation of uHTS hits for small molecule antagonists of the CRF-binding protein and CRF-R2 receptor complex.; assay type: functional; conditions: read-out: IC50_Mean
[4] = biological target: T2, Adenosylmethionine-8-amino-7-oxononanoate aminotransferase (Mycobacterium tuberculosis, UniProt P9WQ81); assay: Mycobacterium tuberculosis BioA enzyme inhibitor Measured in Biochemical System Using Plate Reader - 2163-02_Inhibitor_Dose_CherryPick_Activity.; assay type: functional, Mycobacterium tuberculosis UT205
T2 sequence (P9WQ81 whole entry): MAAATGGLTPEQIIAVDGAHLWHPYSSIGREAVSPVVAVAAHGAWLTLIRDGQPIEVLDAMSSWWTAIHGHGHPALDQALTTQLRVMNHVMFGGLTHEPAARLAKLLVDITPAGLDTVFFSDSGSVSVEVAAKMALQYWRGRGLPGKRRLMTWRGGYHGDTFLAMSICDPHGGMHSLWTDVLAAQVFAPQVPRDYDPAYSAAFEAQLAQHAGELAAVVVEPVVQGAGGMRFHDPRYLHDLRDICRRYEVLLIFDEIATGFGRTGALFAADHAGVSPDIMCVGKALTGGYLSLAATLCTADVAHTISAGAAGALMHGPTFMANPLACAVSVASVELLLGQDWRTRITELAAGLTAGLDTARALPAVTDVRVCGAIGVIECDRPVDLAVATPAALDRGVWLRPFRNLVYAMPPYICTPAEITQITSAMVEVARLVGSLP

[5] = biological target: FAD-linked sulfhydryl oxidase ALR (Homo sapiens, UniProt P55789); assay: ALR-catalysed DTT oxidation blockers – biochemical, H2O2 detection, luminescence, cherry-pick, dose response (AID 493248)
FAD-linked sulfhydryl oxidase ALR, sequence (P55789 whole entry): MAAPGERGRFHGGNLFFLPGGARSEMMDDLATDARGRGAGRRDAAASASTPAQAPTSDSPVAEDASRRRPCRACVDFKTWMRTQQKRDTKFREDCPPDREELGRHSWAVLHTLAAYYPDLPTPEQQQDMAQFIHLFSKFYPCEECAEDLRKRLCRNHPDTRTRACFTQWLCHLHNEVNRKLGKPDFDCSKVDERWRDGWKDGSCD

[6] = biological target: T3, Long-chain-fatty-acid--AMP ligase FadD28 (Mycobacterium tuberculosis, UniProt P9WQ59); assay: Fluorescence polarization aasay to screen for inhibitors that compete for the binding of FadD28 to a bisubstrate Measured in Biochemical System Using Plate Reader - 2147-01_Inhibitor_Dose_CherryPick_Activity.; assay type: functional, Mycobacterium tuberculosis H37Rv
T3 sequence (P9WQ59 whole entry): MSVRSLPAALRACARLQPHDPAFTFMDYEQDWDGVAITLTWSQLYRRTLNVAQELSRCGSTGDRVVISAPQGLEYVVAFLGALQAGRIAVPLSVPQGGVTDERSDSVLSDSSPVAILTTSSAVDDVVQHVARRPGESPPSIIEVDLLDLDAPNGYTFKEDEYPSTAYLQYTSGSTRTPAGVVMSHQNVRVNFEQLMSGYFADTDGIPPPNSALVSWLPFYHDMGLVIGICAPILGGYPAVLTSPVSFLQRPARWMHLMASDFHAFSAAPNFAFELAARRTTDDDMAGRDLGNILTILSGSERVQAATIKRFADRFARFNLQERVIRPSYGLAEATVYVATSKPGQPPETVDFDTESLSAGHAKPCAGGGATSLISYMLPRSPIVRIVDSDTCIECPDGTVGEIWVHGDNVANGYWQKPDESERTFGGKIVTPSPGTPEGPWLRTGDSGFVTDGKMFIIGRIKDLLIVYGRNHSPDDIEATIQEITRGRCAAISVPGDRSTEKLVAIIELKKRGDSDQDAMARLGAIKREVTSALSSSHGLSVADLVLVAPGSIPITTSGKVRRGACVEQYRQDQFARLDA

Cytochrome P450 2C9, sequence (P11712 whole entry): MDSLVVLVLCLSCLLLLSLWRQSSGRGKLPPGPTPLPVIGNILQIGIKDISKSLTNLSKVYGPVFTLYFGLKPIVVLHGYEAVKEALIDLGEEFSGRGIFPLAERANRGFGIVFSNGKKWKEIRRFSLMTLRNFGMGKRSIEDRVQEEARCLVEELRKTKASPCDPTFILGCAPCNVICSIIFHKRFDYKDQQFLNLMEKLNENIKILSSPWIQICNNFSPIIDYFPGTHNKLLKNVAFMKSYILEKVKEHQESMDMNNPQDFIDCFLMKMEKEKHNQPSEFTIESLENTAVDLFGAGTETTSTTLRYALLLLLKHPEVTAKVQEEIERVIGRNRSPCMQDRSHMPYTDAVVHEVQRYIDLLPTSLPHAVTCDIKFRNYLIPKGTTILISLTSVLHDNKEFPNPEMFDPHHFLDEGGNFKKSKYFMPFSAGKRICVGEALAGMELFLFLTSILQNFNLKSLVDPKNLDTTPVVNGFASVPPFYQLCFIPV
Cytochrome P450 2D6, sequence (P10635 whole entry): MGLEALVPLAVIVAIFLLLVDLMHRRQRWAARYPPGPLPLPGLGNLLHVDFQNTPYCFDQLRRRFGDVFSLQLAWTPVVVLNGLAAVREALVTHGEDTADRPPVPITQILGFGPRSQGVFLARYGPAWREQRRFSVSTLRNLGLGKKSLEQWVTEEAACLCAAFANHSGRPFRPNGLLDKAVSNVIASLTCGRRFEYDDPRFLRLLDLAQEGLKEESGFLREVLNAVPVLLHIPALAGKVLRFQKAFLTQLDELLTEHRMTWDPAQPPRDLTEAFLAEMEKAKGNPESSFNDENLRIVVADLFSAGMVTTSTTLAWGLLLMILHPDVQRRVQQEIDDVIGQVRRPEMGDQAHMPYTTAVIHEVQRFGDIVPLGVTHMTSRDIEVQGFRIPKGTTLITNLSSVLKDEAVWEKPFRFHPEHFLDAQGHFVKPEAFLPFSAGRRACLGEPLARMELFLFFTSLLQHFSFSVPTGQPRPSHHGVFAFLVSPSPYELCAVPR

N#Cc1cccc(C(c2nnnn2C2CCCC2)N2CCCCCC2)c1 (configuration not stated)
AC50 (Cytochrome P450 2C9): 35.5 µM (inconclusive) | AC50 (Cytochrome P450 2D6): 11.2 µM (inconclusive) | IC50 [1]: > 20 µM (inactive) | EC50 [2]: > 53 µM (inactive) | IC50 [3]: 20.7 µM (active)

CCC(c1nnnn1C1CCCC1)N1CCN(Cc2ccccc2)CC1 (configuration not stated)
IC50 [1]: > 20 µM (inactive) | EC50 [2]: > 53 µM (inactive) | IC50 [3]: < 0.368 µM (active)

Cc1cc(C(=O)CSc2nncs2)c(C)n1-c1ccc2c(c1)OCO2
AC50 [4]: 1.67 µM (active)

COc1ccc(NC2c3ccccc3C(=O)N2c2cccnc2)cc1Cl (configuration not stated)
AC50 [5]: 4.34 µM (active) | AC50 [4]: 4.04 µM (active)

COC(=O)c1cc(OC)c(OC)cc1NC(=O)c1c(-c2ccccc2)noc1C
IC50 [1]: 1.87 µM (active) | EC50 [2]: > 53 µM (inactive) | IC50 [3]: 16.2 µM (active)

O=C(COC(=O)c1ccc(O)cc1O)Nc1cccc2ccccc12
AC50 [6]: > 100 µM (inactive)

CC(=O)N1CC[C@@H]2[C@@H](CO)N(C)c3ccc(-c4cccc(F)c4)cc3[C@@H]21
AC50 [4]: 0.832 µM (active)

COc1cc(C(=O)Nc2cccnc2)cc(OC)c1OC
AC50 [4]: 2.14 µM (active)
